Reference: US8901307B2, “Chemical compounds 251” (AstraZeneca AB, priority 2008, dated 2014)
Where a name gives a salt, the structure may show the parent alone.

Tests used:
human His-PIM1 [2-313] = target: T1, human His-PIM1 [2-313] (Homo sapiens, UniProt P11309); assay: PIM1 in-vitro mobility shift assay (Caliper LC3000, FL-Ahx-Bad phosphorylation); format: biochemical; details: 1.5 h; percent inhibition at 0.3 uM compound; read-out: PIM1 % I at 0.3 uM
T1 construct: purified human His-PIM1 [2-313] enzyme; His (N); purchased University of Dundee, Scotland; host or cells: baculovirus system
T1 sequence (P11309 2-313): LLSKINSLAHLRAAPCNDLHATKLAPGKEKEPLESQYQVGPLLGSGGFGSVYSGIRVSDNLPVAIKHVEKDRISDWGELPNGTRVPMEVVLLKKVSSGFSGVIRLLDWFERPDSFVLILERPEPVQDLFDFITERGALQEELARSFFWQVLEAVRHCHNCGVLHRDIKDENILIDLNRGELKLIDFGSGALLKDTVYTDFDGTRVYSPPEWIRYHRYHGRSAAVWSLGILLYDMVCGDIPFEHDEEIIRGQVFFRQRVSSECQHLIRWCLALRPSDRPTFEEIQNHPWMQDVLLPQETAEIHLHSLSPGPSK
How it was run: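 Compound preincubated 20 min at 25 °C with 2.4 nM PIM1, 3.6 µM FL-Ahx-Bad peptide and 240 µM ATP (1.2× mix concentrations). Reaction started with 24 mM MgCl2 mix, run 90 min at 25 °C, EDTA-stopped. Phospho/unphospho peptide separated by microfluidic mobility shift; percent inhibition from ratiometric turnover.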

human His-PIM2 [23-299] = target: T2, human His-PIM2 [23-299] (Homo sapiens, UniProt Q9P1W9); assay: PIM2 in-vitro mobility shift assay (Caliper LC3000, FL-Ahx-Bad phosphorylation); format: biochemical; details: 1.5 h; percent inhibition at 0.3 uM compound; read-out: PIM2 % I at 0.3 uM
T2 construct: purified human His-PIM2 [23-299] enzyme; His (N); host or cells: E. coli
T2 sequence (Q9P1W9 23-299): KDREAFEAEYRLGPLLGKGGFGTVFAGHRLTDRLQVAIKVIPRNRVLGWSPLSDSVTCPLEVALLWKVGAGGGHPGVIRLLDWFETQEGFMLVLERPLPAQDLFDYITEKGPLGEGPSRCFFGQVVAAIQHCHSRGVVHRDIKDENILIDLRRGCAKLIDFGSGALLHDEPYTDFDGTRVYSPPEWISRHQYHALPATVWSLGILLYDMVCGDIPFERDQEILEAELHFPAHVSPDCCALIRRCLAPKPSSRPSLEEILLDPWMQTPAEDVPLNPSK

SMILES	inhibition at 0.3 µM (human His-PIM1 [2-313]) [%]	inhibition at 0.3 µM (human His-PIM2 [23-299]) [%]
Cn1ccc2ccc(/C=C3\SC(=O)NC3=O)cc21 [Example 75, (5Z)-5-[(1-methyl-1H-indol-6-yl)methylene]-1,3-thiazolidine-2,4-dione]	> 95	69.5
N[C@H]1CCN(c2ccc(C(=O)O)cc2/C=C2\SC(=O)NC2=O)C1 [Example 122AH, (S,Z)-4-(3-aminopyrrolidin-1-yl)-3-((2,4-dioxothiazolidin-5-ylidene)methyl)benzoic acid]	19	14
CN(C)[C@H]1CCN(c2ccc(F)cc2C=C2SC(=O)NC2=O)C1 [Example 84K, (S)-5-(2-(3-(dimethylamino)pyrrolidin-1-yl)-5-fluorobenzylidene)thiazolidine-2,4-dione]	> 95	90.8
CN(C)CCN(C)c1ccccc1/C=C1\SC(=O)NC1=O [Example 47, (5Z)-5-{2-[[2-(dimethylamino)ethyl](methyl)amino]benzylidene}-1,3-thiazolidine-2,4-dione]	50	26.3
Cc1noc(C2CCCN(c3c(Cl)cc(C(F)(F)F)cc3/C=C3\SC(=O)NC3=O)C2)n1 (stereo not drawn) [Example 16]	13.9	< 5
CN1CCN(c2ccccc2/C=C2\SC(=O)NC2=O)CC1 [Example 84A, (5Z)-5-[2-(4-methylpiperazin-1-yl)benzylidene]-1,3-thiazolidine-2,4-dione]	92.9	54.3
O=C1NC(=O)/C(=C/c2cc(C(F)(F)F)cc(Cl)c2N2CCN(c3ccc(Cl)cc3F)CC2)S1 [Example 15]	12.9	< 5
CCCCN1CCCN(c2c(Cl)cc(C(F)(F)F)cc2/C=C2\SC(=O)NC2=O)CC1 [Example 27]	90.8	25.1
COc1ccc(N2CC[C@H](N(C)C)C2)c(C=C2SC(=O)NC2=O)c1 [Example 84G, (S)-5-(2-(3-(dimethylamino)pyrrolidin-1-yl)-5-methoxybenzylidene)thiazolidine-2,4-dione]	92	63
COc1cc(N)c(/C=C2\SC(=O)NC2=O)cc1OC [Example 152]	10.8	16.7
NCCCN[C@H]1CCN(c2ccc(C(F)(F)F)cc2/C=C2\SC(=O)NC2=O)C1 [Example 123, (S,Z)-5-(2-(3-(3-aminopropylamino)pyrrolidin-1-yl)-5-(trifluoromethyl)benzylidene)thiazolidine-2,4-dione hydrochloride]	> 95	> 95
N[C@@H]1CCCN(c2ccc(C(=O)O)cc2/C=C2\SC(=O)NC2=O)C1 [Example 122AG, (R,Z)-4-(3-aminopiperidin-1-yl)-3-((2,4-dioxothiazolidin-5-ylidene)methyl)benzoic acid hydrochloride]	68.9	86.7
COc1cc(/C=C2\SC(=O)NC2=O)c(N2CCC(N(C)C)C2)cc1OC (stereo not drawn) [Example 52, (5Z)-5-{2-[4-(dimethylamino)pyrrolidin-1-yl]-4,5-dimethoxybenzylidene}-1,3-thiazolidine-2,4-dione]	> 95	93.5
O=C1NC(=O)/C(=C/c2cc(C(F)(F)F)cc(Cl)c2N2CCN(CC3CC3)CC2)S1 [Example 21]	82.9	15.8
N[C@H]1CCN(c2c(/C=C3\SC(=O)NC3=O)cccc2OCC(F)(F)F)C1 [Example 122Z, (S,Z)-5-(2-(3-aminopyrrolidin-1-yl)-3-(2,2,2-trifluoroethoxy)benzylidene)thiazolidine-2,4-dione hydrochloride]	> 95	> 95
